Here are results for 3 compounds from publication PMC9824012, “Exploring Antimicrobial Peptides Efficacy against Fire Blight (Erwinia amylovora)” (Plants, 2022).

The test system of test [1] is Erwinia amylovora. The test can be described thus: In vivo antibacterial activity on inoculated immature pear fruits. The following applies: immature pears, 6 days at 25 °C, eight replicates. Set-up: species or system Erwinia amylovora on pear fruits (cv. 'Recchia falsa'). As to the method: To evaluate the in vivo antibacterial activity of selected AMPs, immature pear fruits (cv. ‘Recchia falsa’) were inoculated with E. amylovora and AMPs were applied. Briefly, ten-week-old pears were disinfected by immersion in a 70% ethanol solution for 2 min and then rinsed 3 times in sterile distilled water. Disinfected fruits were pricked to approximately 5 mm deep, with a sterile micropipette tip and inoculated with 20 µL of E. amylovora suspension (10^8 CFU/mL). Once the fruits had absorbed the bacteria, two concentrations of peptides (50 and 250 µM) were used; 20 µL of the concentration was introduced into the inoculation site and incubated in a humid chamber at 25 °C for 6 days. Fruits inoculated with sterile water and with E. amylovora suspension were included as controls. The experiment consisted of eight replicates per treatment, and symptoms were recorded at 6 days post-infection. The symptoms developed in immature pears (i.e., necrosis or bacterial exudates) were evaluated by measuring the diameter of necrotic lesions. The data were then analyzed using variance analysis (ANOVA), followed by Duncan’s multiple range test (α = 0.05), using SPSS statistical software (version 24.0, IBM, Armonk, N.Y., USA). All data were presented as mean values ± standard deviation (SD).

Test [2] relates to Erwinia amylovora. The following applies: 24 h. Here is the method: (§1) The bacterial material consisted of E. amylovora strain PGL Z1, isolated in 2013 from pear in Apulia region (Italy), and Xanthomonas campestris pv. campestris strain CFBP 1710 (X. campestris), isolated in 1975 from Brassica oleracea var. botrytis in France, which was used as a control to investigate the bactericidal activity and action mode of AMPs against two different bacteria. The bacterial strains were cultured on yeast extract peptone glucose agar (YPGA) and broth (YPG) media, consisting of 0.5% yeast extract, 0.5% peptone, 1% glucose and 1.5% agar. E. amylovora and X. campestris cell suspensions were prepared in sterile distilled water and the suspensions were adjusted to an optical density at 600 nm (OD600) of 0.1, which corresponds approximately to 10^8 CFU/mL.
Briefly, 20 µL from each concentration (50 and 250 µM) was mixed with 180 µL of E. amylovora suspension (YPG) and incubated at 25 °C for 24 h. Six OD600 nm measures were taken over 24 h using the NanoDrop™ One/OneC Microvolume UV-Vis Spectrophotometer (ThermoFisher Scientific, Waltham, MA, USA).

The subject of test [3] is Erwinia amylovora. The test can be described thus: Fluorescence microscopy LIVE/DEAD BacLight (SYTO9/PI). The class given is cell-based, Erwinia amylovora strain PGL Z1. The following applies: 1 h, calculated from SYTO9 and PI counts. Here is the method:
The bactericidal activity of the selected peptides (GF19, FG22, IL14, and KL29) was assessed by a test contact for 24 h, as described (Section 2.3), coupled with v-qPCR assay using the PMAxx™ (Biotium, Rome, Italy). PMAxx™ is a photo-reactive dye that binds to DNA with high affinity; upon cell lysis, it covalently attaches to disrupted DNA that cannot be amplified by PCR. This unique feature makes PMAxx™ extremely useful in selective detection of bacterial cells with intact plasma membranes by qPCR. Briefly, after 24 h at 25 °C, 200 µL of the mixture was transferred to a new tube and treated with PMAxx at a final concentration of 7.5 μM. Subsequently, samples were incubated in the dark at room temperature for 8 min, followed by photoactivation for 15 min. Genomic DNA of all samples was extracted using the cetyltrimethylammonium bromide (CTAB) method. v-qPCR was carried out in a thermocycler apparatus (Bio-Rad CFX96, BioRad, Milan, Italy), using Ea-lsc primers and conditions reported in Laforest et al.. The v-qPCR cycles consisted of an initial denaturation step of 95 °C for 5 min; 45 cycles of 95 °C for 30 s and 60 °C for 30 s with fluorescence readings at each cycle. For the FM assay, aliquots of E. amylovora suspension were incubated with 50 and 250 μM of selected peptides for 1 h at room temperature. The same protocol was used for X. campestris at different concentrations (100, 50, 25, 12.5, 6.25, 2 μM) using KL29 peptide, known for its potent bactericidal activity against X. campestris. The LIVE/DEAD ®BacLight™ viability kit (ThermoFisher Scientific, Milan, Italy) was used according to the manufacturer’s recommendation to assess the integrity of bacteria cells treated with the peptides at 1 h post-infection (Stocks, 2004). Briefly, 9 μL of sample was mixed with 0.5 μL of SYTO9 and 0.5 μL of propidium iodide (PI) for 15 min at room temperature in the dark. Photomicrographs were taken with a Nikon E800 microscope using a fluorescein isothiocyanate (480/30 excitation filter, DM505 dichroic mirror, 535/40 emission filter) and tetramethyl rhodamine isocyanate (546/10 excitation filter, DM575 dichroic mirror, 590 emission filter) fluorescence filter sets.
Supplementary Table S2. The statistical analysis consisted of counting the coloured spo ts (green: SYTO9 and red: PI) in the different channels of 10 replicas for the two concentrations of each antimicrobial peptide and the relative percentages of viable cells is calculated.
250 µM 50 µM % of viability
(1 picture or pasted object on this page, not shown here)

In test [4] the test system is Erwinia amylovora. The test can be described thus: Spot test screening of AMPs on plates. The class given is cell-based, Erwinia amylovora strain PGL Z1. The arrangement: key to Spot test result at 1 mM / Spot test result at 500 µM / Spot test result at 250 µM / Spot test result at 100 µM / Spot test result at 50 µM / Spot test result at 25 µM / Spot test result at 12.5 µM: +: Clear plaque formation; -: no plaque formation. As to the method:
as §1
The nine AMPs were screened using the spot test to select those with the best antibacterial activity against E. amylovora. Briefly, 300 µL of E. amylovora suspension (10^8 CFU/mL) was poured into the plates and maintained at room temperature for 15 min. Subsequently, 5 μL from each peptide at different concentrations (1000, 500, 250, 100, 50, 25 and 12.5 μM) was spotted onto the surface of the plates, followed by overnight incubation at 25 °C. Sterile distilled water was spotted in the plates as a control.
Supplementary Table S1. Results of the spot tests for the nine antimicrobial peptides used against Erwinia
Ascaphin-8 GF-19 + + + + + - -
DASamP1 FF-13 + + + - - - -
DASamP2 IL-14 + + + + + - -
Lycotoxin I IL-25 + + + + - - -
Maculatin 1.3 GF-21 + + + - - - -
Piscidin 1 FG-22 + + + + + - -
BP178 KL-29 + + + + + + -
RIJK2 RV-12 + + + - - - -
+: Clear plaque formation; -: no plaque formation.

Test [5] has as its system Erwinia amylovora. The test can be described thus: Transmission electron microscopy of treated cells. The conditions noted are these: antibiotic control 0.5 mg/mL. It is filed as cell-based, Erwinia amylovora strain PGL Z1. As to the method:
Aliquots of E. amylovora suspensions were incubated with the KL29 for 15 min at room temperature to investigate peptide antibacterial modes of action (lytic and non-lytic). E. amylovora suspensions treated with 0.5 mg/mL of streptomycin (bacteriostatic antibiotic), and ampicillin (bactericidal antibiotic) were used as controls. Preparations were observed under TEM (FEI MORGAGNI 282D, Hillsboro, OR, USA) by the dip method: the carbon coated copper/rhodium grids were incubated with treated and untreated bacterial suspension for 2 min, and then rinsed with 200 μL of distilled water. Negative staining was obtained by floating the grids on 200 μL of 0.5 % w/v UA-zero EM STAIN (Agar-Scientific Ltd., Stansted, UK) solution and observing them under the EM using an accelerating voltage of 80 kV.

Like-named read-outs stand apart in the source and are kept apart here. Ends that are not written are not given here.

Take “FFHHIFRGIVHVGKTIHRLVTG [FG22, Piscidin 1]”: the “Reduction of fire blight symptoms (necrotic lesion diameter)” value in the test with Erwinia amylovora [1] (20 µL peptide at 50 µM into inoculation site) came to 48%; with Erwinia amylovora [1] (20 µL peptide at 250 µM into inoculation site) it was 65%. Besides, the results for the “Inhibition of E. amylovora growth (OD600)” value in the test with Erwinia amylovora [2] (50 µM) and in the test on Erwinia amylovora [2] (250 µM) were about 60% and 92%, respectively. The “% of viability” value in the test on Erwinia amylovora [3] (peptide 50 µM) is on record as 28%; with Erwinia amylovora [3] (peptide 250 µM) it was 49%. The “Spot test result at 12.5 µM” value in the test with Erwinia amylovora [4] (5 µL peptide at 12.5 µM spotted on plate with E. amylovora 10^8 CFU/mL, overnight at 25 °C) is “-”. For the same compound, the “Spot test result at 25 µM” value in the test on Erwinia amylovora [4] (5 µL peptide at 25 µM spotted on plate with E. amylovora 10^8 CFU/mL, overnight at 25 °C) was “-”. For the same compound, the “Spot test result at 50 µM” value in the test on Erwinia amylovora [4] (5 µL peptide at 50 µM spotted on plate with E. amylovora 10^8 CFU/mL, overnight at 25 °C) is given as “+”. For the same compound, the “Spot test result at 100 µM” value with Erwinia amylovora [4] (5 µL peptide at 100 µM spotted on plate with E. amylovora 10^8 CFU/mL, overnight at 25 °C) is listed as “+”. Moreover, the “Spot test result at 250 µM” value in the test on Erwinia amylovora [4] (5 µL peptide at 250 µM spotted on plate with E. amylovora 10^8 CFU/mL, overnight at 25 °C) was “+”. In the test on Erwinia amylovora [4] (5 µL peptide at 500 µM spotted on plate with E. amylovora 10^8 CFU/mL, overnight at 25 °C), the “Spot test result at 500 µM” value is “+”. Besides, the “Spot test result at 1 mM” value in the test on Erwinia amylovora [4] (5 µL peptide at 1 mM spotted on plate with E. amylovora 10^8 CFU/mL, overnight at 25 °C) is on record as “+”. Moreover, the “Spot test, killing of E. amylovora at 50 µM (in words)” value in the test on Erwinia amylovora [4] (peptide 50 µM) was “could kill E. amylovora”.
As to `[H]/N=C(/N)N[C@H]1[C@H](O)[C@@H](O)[C@H](O[C@@H]2O[C@@H](C)[C@](O)(C=O)[C@H]2O[C@@H]2O[C@@H](CO)[C@H](O)[C@@H](O)[C@@H]2NC)[C@@H](N/C(N)=N\[H])[C@@H]1O` [streptomycin], in the test with Erwinia amylovora [5], the “TEM morphology of treated E. amylovora cells (in words)” value is “reduced cell lysis and morphological alterations similar to those treated with KL29 at 250 µM”.
The same measure, in the same setting: in the case of `CC1(C)S[C@@H]2[C@H](NC(=O)[C@H](N)c3ccccc3)C(=O)N2[C@H]1C(=O)O` [ampicillin] it was “damaged cell walls and the decomposition of inner structures”.
